In the Kinase Knowledgebase extract (Sharma et al. 2016) one finds IC50 data, which are given here for 62 compounds.

SMILES strings stand for the structures.

The target of this experiment is EGFR (UniProt P00533).
Sequence of EGFR (P00533 whole entry, looked up): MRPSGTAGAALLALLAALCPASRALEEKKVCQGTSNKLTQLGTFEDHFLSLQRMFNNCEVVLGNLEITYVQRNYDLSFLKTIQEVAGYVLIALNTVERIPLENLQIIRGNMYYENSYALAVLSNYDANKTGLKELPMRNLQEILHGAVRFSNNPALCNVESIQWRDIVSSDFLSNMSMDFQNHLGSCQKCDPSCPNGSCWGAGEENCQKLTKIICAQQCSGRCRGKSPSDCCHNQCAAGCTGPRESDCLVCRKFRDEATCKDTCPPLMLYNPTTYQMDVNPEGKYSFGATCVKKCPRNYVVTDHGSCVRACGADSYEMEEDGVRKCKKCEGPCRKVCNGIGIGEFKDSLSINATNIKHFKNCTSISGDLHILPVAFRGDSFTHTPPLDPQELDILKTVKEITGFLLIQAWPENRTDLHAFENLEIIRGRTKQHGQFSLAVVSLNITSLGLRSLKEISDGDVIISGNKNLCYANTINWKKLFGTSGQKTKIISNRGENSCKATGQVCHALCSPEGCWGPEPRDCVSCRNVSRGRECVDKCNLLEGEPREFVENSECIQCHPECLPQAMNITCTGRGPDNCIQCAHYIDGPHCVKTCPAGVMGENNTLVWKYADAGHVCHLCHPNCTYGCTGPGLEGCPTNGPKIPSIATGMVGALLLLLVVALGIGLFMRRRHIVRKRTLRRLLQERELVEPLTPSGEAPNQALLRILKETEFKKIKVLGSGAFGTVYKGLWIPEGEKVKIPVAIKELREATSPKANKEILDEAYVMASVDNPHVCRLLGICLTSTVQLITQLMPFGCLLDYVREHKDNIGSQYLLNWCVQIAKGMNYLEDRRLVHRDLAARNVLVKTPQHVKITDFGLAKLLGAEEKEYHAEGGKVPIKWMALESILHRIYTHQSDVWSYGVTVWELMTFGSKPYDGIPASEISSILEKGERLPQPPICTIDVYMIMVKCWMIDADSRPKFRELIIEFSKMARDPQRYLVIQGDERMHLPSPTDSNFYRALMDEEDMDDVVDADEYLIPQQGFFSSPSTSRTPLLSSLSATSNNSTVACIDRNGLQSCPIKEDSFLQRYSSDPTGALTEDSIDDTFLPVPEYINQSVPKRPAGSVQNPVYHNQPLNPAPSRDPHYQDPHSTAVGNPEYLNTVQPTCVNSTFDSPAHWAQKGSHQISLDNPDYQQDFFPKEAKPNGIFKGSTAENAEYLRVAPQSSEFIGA
The term IC50 denotes the concentration at which inhibition is half-maximal. The low end stands for greater potency in that assay, the high end for weaker potency in that assay. Turning to `COc1cc2c(Nc3ccc(Cl)c(Cl)c3)ncnc2cc1O[C@@H]1CO[C@@H]2[C@H]1OC[C@H]2F`, the concentration for half-maximal inhibition (IC50) is below 50 nM.

Compound `COc1cc2c(Nc3ccc(Cl)c(Cl)c3)ncnc2cc1OCC1CN(CCCCF)CCO1` (configuration not stated) yielded an IC50 below 50 nM. For `COc1cc2c(Nc3ccc(Br)c(Cl)c3F)ncnc2cc1OC[C@@H]1CN2CCOC[C@H]2CO1` the value was below 50 nM; for `CCN1CCN(c2nc(COc3cc4ncnc(Nc5ccc(Cl)c(Cl)c5)c4cc3OC)cs2)CC1`, below 50 nM; for `COc1cc2c(Nc3ccc(Cl)c(Cl)c3)ncnc2cc1OCCC1CCCCC1`, below 50 nM. `CCOc1cc2c(Nc3ccc(Cl)c(Cl)c3)ncnc2cc1OCC1CNCCO1` (configuration not stated) yielded an IC50 below 50 nM. `COc1cc2c(Nc3ccc(Cl)c(Cl)c3)ncnc2cc1OCC1CN(C(N)=NC#N)CCO1` (configuration not stated) returned an IC50 below 50 nM. The compound `COc1cc2c(Nc3ccc(Cl)c(Cl)c3)ncnc2cc1OCC1COCCN1C` (configuration not stated) gave an IC50 below 50 nM. The same measure for `COc1cc2c(Nc3ccc(F)c(C(F)(F)F)c3)ncnc2cc1O[C@@H]1CO[C@@H]2[C@H]1OC[C@H]2F`: below 50 nM; for `COc1cc2c(Nc3ccc(Br)c(Cl)c3Cl)ncnc2cc1OCC1CN(C)C(C)(C)CO1` (configuration not stated): below 50 nM. For `COc1cc2c(Nc3ccc(Cl)c(Cl)c3)ncnc2cc1OC[C@H]1CN2CCC[C@H]2CO1` the value was below 50 nM; for `CCOC(=O)C(C)N1CCOC(COc2cc3ncnc(Nc4ccc(Cl)c(Cl)c4)c3cc2OC)C1` (configuration not stated), below 50 nM; for `COc1cc2c(Nc3ccc(Cl)c(Cl)c3)ncnc2cc1OCC1CN(c2ccncc2)CCO1` (configuration not stated), below 50 nM. The same measure for `COc1cc2c(Nc3ccc(F)c(Cl)c3F)ncnc2cc1OCC1CN(C)CCO1` (configuration not stated): below 50 nM; for `COc1cc2c(Nc3ccc(Cl)c(Cl)c3)ncnc2cc1OCC1CN(C2CCOCC2)CCO1` (configuration not stated): below 50 nM. Consider `COc1cc2c(Nc3ccc(F)c(F)c3)ncnc2cc1O[C@@H]1CO[C@@H]2[C@H]1OC[C@H]2F`, for which the IC50 is below 50 nM.

Consider `COc1cc2c(Nc3ccc(Cl)c(Cl)c3)ncnc2cc1OCC1CN(CCCCCCO)CCO1` (configuration not stated), for which the IC50 was below 50 nM. Compound `COc1cc2c(Nc3ccc(Cl)c(Cl)c3)ncnc2cc1OCc1nc(CN2CCCN(C)CC2)cs1` displayed an IC50 below 50 nM. The same measure for `COc1cc2c(Nc3cccc(Br)c3C)ncnc2cc1OCC1CN(C)CCO1` (configuration not stated): below 50 nM; for `COc1cc2c(Nc3ccc(Cl)c(Cl)c3)ncnc2cc1OC1CO[C@@H]2[C@@H](OC)CO[C@H]12` (some centres not stated): below 50 nM.

For the compound `COc1cc2c(Nc3ccc(Cl)c(Cl)c3)ncnc2cc1OCc1nc(-c2cccnc2)cs1`, the IC50 was below 50 nM. `COc1cc(OC)c(Nc2ncnc3cc(O[C@@H]4CO[C@@H]5[C@H]4OC[C@H]5F)c(OC)cc23)cc1Cl` showed an IC50 below 50 nM. `COc1cc2c(Nc3cc(F)ccc3F)ncnc2cc1O[C@@H]1CO[C@@H]2[C@H]1OC[C@H]2F` had an IC50 below 50 nM. The compound `COc1cc2c(Nc3ccc(Cl)c(Cl)c3)ncnc2cc1OCc1nc(-c2ccc(N3CCCC3)cc2)cs1` registered an IC50 below 50 nM. Turning to `COc1cc2c(Nc3ccc(Br)cc3F)ncnc2cc1O[C@@H]1CO[C@@H]2[C@H]1OC[C@H]2F`, the IC50 is below 50 nM. With `COc1cc2c(Nc3ccc(Cl)c(Cl)c3)ncnc2cc1OC[C@@H]1CN2CCC[C@@H]2CO1`, the 50% inhibitory concentration (IC50) was below 50 nM.

`COc1cc2c(Nc3cccc(Cl)c3F)ncnc2cc1O[C@@H]1CO[C@@H]2[C@H]1OC[C@H]2F` gave an IC50 below 50 nM. As to `COc1cc2c(Nc3ccc(Cl)c(Cl)c3)ncnc2cc1OCc1nccn1Cc1ccccc1`, the IC50 is below 50 nM. `CCN1CCCCC1c1nc(COc2cc3ncnc(Nc4ccc(Cl)c(Cl)c4)c3cc2OC)cs1` (configuration not stated): the concentration for half-maximal inhibition (IC50) is below 50 nM. For `COc1cc2c(Nc3ccc(Cl)c(Cl)c3)ncnc2cc1OCc1csc(N2CCOCC2)n1`, the IC50 was below 50 nM. Turning to `COc1cc2c(Nc3ccc(Br)c(Cl)c3)ncnc2cc1OCC1CN(C)CCO1` (configuration not stated), the IC50 was below 50 nM.

Regarding `COc1cc2c(Nc3cc(Cl)c(Br)cc3F)ncnc2cc1OC[C@H]1CN2CCOC[C@H]2CO1`, the IC50 was below 50 nM. With `COc1cc2c(Nc3cc(Cl)c(Cl)c(Cl)c3)ncnc2cc1O[C@@H]1CO[C@@H]2[C@H]1OC[C@H]2F`, the IC50 is below 50 nM. For `C=CCCCCN1CCOC(COc2cc3ncnc(Nc4ccc(Cl)c(Cl)c4)c3cc2OC)C1` (configuration not stated) the value was below 50 nM. The compound `COc1cc2c(Nc3ccc(Cl)c(Cl)c3)ncnc2cc1OCC1CN(C(N)=NC#N)CCCO1` (configuration not stated) registered an IC50 below 50 nM.

`COc1cc2c(Nc3cc(Cl)c(Cl)cc3F)ncnc2cc1OC[C@H]1C[C@@H]2CN(C)C[C@@H]2C1` had an IC50 below 50 nM. The same measure for `CCC(=O)CN1CCOC(COc2cc3ncnc(Nc4ccc(Cl)c(Cl)c4)c3cc2OC)C1` (configuration not stated): below 50 nM; for `COc1cc2c(Nc3ccc(Cl)c(Cl)c3)ncnc2cc1OCc1csc(N2CCNCC2)n1`: below 50 nM. The same measure for `COc1cc2c(Nc3ccccc3F)ncnc2cc1O[C@@H]1CO[C@@H]2[C@H]1OC[C@H]2F`: below 50 nM; for `COCCN1CCOC(COc2cc3ncnc(Nc4ccc(Cl)c(Cl)c4)c3cc2OC)C1` (configuration not stated): below 50 nM; for `CC#CCN1CCOC(COc2cc3ncnc(Nc4ccc(Cl)c(Cl)c4)c3cc2OC)C1` (configuration not stated): below 50 nM. As to `COc1cc2c(Nc3ccc(Br)c(Cl)c3)ncnc2cc1O[C@H]1CO[C@@H]2[C@H]1OC[C@@H]2N`, the IC50 is below 50 nM. In turn, `COc1cc2c(Nc3ccc(Cl)c(Cl)c3)ncnc2cc1OCC1CN(C(=NC#N)N2CCCCC2)CCO1` (configuration not stated) came in with an IC50 below 50 nM. The same measure for `COc1cc2c(Nc3ccc(Cl)c(Cl)c3)ncnc2cc1OCc1noc(-c2ccccc2OC)n1`: below 50 nM; for `COc1cc2c(Nc3ccc(Cl)c(Cl)c3)ncnc2cc1OCC1CN(C2CCCC2)CCO1` (configuration not stated): below 50 nM; for `COc1cc2c(Nc3ccc(Cl)c(Cl)c3)ncnc2cc1OCc1cc(Br)cc(Br)c1`: 50 to 1000 nM. For `COc1cc2c(Nc3ccc(Cl)c(Cl)c3)ncnc2cc1OCc1nc(N(C)C)no1` the value was below 50 nM; for `COc1cc2c(Nc3ccc(Br)c(Cl)c3)ncnc2cc1O[C@@H]1CO[C@@H]2[C@H]1OC[C@H]2NS(C)(=O)=O`, below 50 nM; for `COc1cc2c(Nc3ccc(Cl)c(Cl)c3)ncnc2cc1OCC1CN(CC(=O)c2ccccc2)CCO1` (configuration not stated), below 50 nM. The compound `COc1cc2c(Nc3ccc(Cl)c(Cl)c3)ncnc2cc1OCC(=O)N1CCOCC1` registered an IC50 below 50 nM. As to `COc1cc2c(Nc3ccc(Cl)c(Cl)c3)ncnc2cc1OCc1nc(-c2ccccn2)cs1`, the IC50 was below 50 nM.

The compound `COc1cc2c(Nc3ccc(Cl)c(Cl)c3)ncnc2cc1OCC1CN(CCC2OCCO2)CCO1` (configuration not stated) registered a concentration for half-maximal inhibition (IC50) below 50 nM. `COc1cc2c(Nc3cc(Cl)c(Br)cc3F)ncnc2cc1OCC1CN(C)CCO1` (configuration not stated) registered an IC50 below 50 nM. The same measure for `COc1cc2c(Nc3ccc(Cl)c(Cl)c3)ncnc2cc1OCCC1CN(C)C(C)(C)CO1` (configuration not stated): below 50 nM; for `COc1cc2c(Nc3ccc(Cl)c(Cl)c3F)ncnc2cc1O[C@@H]1CO[C@@H]2[C@H]1OC[C@H]2F`: below 50 nM. Consider `COc1cc2c(Nc3ccc(Cl)c(Cl)c3)ncnc2cc1OCC1CN(C)C(C)(C)C(=O)O1` (configuration not stated), for which the IC50 was below 50 nM.

`CCCC(C)C(=O)N1CCOC(COc2cc3ncnc(Nc4ccc(Cl)c(Cl)c4)c3cc2OC)C1` (configuration not stated): the half-inhibitory concentration (IC50) is below 50 nM. In the case of `COc1cc2c(Nc3cc(Cl)c(Cl)cc3F)ncnc2cc1OCC1CN(C)CCO1` (configuration not stated), the IC50 was below 50 nM. `COc1cc2c(Nc3ccc(Cl)c(Cl)c3)ncnc2cc1OCc1csc(COC(=O)c2ccccc2)n1` displayed an IC50 below 50 nM.

Compound `COc1cc2c(Nc3ccc(Br)c(Cl)c3)ncnc2cc1O[C@H]1CO[C@@H]2[C@H]1OC[C@@H]2S(C)(=O)=O` returned an IC50 below 50 nM. Compound `COc1cc2c(Nc3ccc(N4CCN(C)CC4)c(F)c3)ncnc2cc1O[C@H]1CO[C@@H]2[C@H]1OC[C@@H]2F` yielded an IC50 below 50 nM. The same measure for `COc1cc2c(Nc3ccc(Cl)c(Cl)c3)ncnc2cc1OCc1noc(C2CCCN2C)n1` (configuration not stated): below 50 nM.
